Earlier results as cited in patent publication US20130078304A1, “CONTROLLED RELEASE FORMULATION FOR TREATING SLEEP DISORDERS” (TAIWAN BIOTECH CO., LTD., priority 2011, published 2013).

What was measured:
[1] = molecular target: T1, benzodiazepine (BZ1) receptors (Homo sapiens, UniProt P14867+P18507)
T1 sequence (P14867 28-456): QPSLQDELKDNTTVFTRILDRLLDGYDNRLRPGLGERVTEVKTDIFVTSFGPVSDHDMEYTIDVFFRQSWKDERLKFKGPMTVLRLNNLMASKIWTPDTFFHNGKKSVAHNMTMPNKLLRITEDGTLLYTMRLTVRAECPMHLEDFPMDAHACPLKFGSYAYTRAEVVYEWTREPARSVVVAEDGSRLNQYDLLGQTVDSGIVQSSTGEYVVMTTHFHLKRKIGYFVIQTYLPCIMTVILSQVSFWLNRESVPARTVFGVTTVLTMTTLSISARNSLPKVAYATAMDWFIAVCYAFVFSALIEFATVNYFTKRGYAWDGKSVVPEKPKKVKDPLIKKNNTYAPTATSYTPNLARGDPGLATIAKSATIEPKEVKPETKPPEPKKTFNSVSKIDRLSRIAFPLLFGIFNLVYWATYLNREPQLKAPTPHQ
T1 sequence (P18507 40-467 limits assumed): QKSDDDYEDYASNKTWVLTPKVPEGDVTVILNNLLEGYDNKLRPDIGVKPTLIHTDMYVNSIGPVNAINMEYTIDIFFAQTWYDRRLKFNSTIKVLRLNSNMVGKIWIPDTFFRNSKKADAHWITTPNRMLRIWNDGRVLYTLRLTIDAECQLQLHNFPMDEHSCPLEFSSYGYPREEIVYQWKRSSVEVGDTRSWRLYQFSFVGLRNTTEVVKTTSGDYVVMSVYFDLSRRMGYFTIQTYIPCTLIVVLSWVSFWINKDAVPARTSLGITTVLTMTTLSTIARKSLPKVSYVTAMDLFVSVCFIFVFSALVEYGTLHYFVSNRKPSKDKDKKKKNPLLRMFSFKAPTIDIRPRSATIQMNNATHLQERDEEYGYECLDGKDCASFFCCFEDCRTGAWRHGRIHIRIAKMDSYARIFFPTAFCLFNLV
T1 sequence (P47870 25-512 partner limits assumed): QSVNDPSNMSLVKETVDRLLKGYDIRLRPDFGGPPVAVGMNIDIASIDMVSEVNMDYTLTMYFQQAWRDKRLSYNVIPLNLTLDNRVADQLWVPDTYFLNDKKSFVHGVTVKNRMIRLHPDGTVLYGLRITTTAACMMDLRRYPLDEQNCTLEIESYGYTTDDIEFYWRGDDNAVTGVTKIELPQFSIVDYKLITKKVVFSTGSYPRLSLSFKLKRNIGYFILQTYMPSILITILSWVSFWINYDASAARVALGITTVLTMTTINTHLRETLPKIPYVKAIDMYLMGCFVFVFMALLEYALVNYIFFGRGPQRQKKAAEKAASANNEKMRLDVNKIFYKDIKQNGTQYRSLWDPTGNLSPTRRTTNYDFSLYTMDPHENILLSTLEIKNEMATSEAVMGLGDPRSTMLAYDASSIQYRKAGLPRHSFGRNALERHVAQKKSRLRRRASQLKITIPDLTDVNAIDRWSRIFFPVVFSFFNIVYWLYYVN

For `CCN(C(C)=O)c1cccc(-c2ccnc3c(C#N)cnn23)c1` [Zaleplon, N-[3-(3-cyanopyrazolo-[1,5-a]-pyrimidin-7-yl)-phenyl]-N-ethyl acetamide], the “binding to the BZ1 receptor” value [1] is listed as “more weakly bound to the receptor than is Zolpidem” and the “solubility in aqueous media” value is listed as “poorly soluble”.
